In patent US11691992B2 (Anacor Pharmaceuticals, Inc., priority 2017, dated 2023):
Where two headings read alike, the source gives them in different places. Each block holds one compound with its values, some of them ahead of it.

Columns and labels:
Type in all cases: cell-based
[1] = tested on: luciferase-expressing L. major parasites developing intracellularly inside RAW 264.7 macrophages; experiment: Leishmania major intracellular amastigote assay in RAW 264.7 macrophages (luciferase); details: RAW264.7, 96 hours, read-out: IC50: I Org. intracellular amastigote Growth L. major, 4 d
Text: Example 107. Assay for Leishmania major Intracellular Amastigote Assay in RAW 264.7 Macrophages
The intracellular amastigote assay is a microtiter plate drug sensitivity assay that uses the activity of luciferase as a measure of proliferation of luciferase-expressing L. major parasites developing intracellularly inside RAW 264.7 macrophages in the presence of antileishmanial drugs or experimental compounds. (Buckner, F. S., and A. J. Wilson. Am J Prop Med Hyg, 2005, 72(5): 600-605.) As the activity of luciferase and its associated luminescence after addition of the substrate, luciferin, is relative to parasite growth, a test compound that inhibits the growth of the parasite will result in a lower luminescence. The luciferase-expressing L. major parasite used in this assay is genetically modified by adding the luciferase coding region to the pLEXSY-hyg2 vector (Jena Biosciences). The luciferase expression construct was created by digesting the luciferase coding region (1.66 kbp) of pGL3-Basic (Promega) by using two restriction enzymes, NcoI/EagI, followed by electrophoretic separation of the luciferase coding region on a 1% agarose gel. The luciferase coding region was then ligated into pLEXSY-hyg2 vector (Jena Biosciences) which had previously been digested with NcoI/NotI. The vector was linearized with SwaI and subsequently gel purified prior to transfection into L. major parasites. Transfections were carried out by electroporation at 480V, 13Ω, and 500 μF (0.4 mL of 1×10^8 parasites/mL, and 0.1 mL of 10 μg DNA). Selection for transfectants was then carried out using hygromycin B (100 μg/mL). RAW 264.7 macrophages were cultured in DMEM media (ATCC Cat #30-2002) supplemented with heat-inactivated 10% FBS (Invitrogen Cat #10438-034). To begin the assay, macrophages were harvested from culture by removing all spent media, adding in 10 mL fresh media, scraping cells, and counted using Trypan Blue. The cells were resuspended in DMEM/10% HIFBS media at 2.0×10^5 cells/mL, and then dispensed in a volume of 50 μL to yield a final concentration of 10,000 macrophages/well in 384 well tissue-culture treated sterile white plates (Nunc Cat #12-565-343) using a Tecan EVO Freedom robotics system. The plates were then incubated at 37° C. overnight in 5% CO2 atmosphere for 24 hours. After overnight incubation, the media was removed from each well using the Tecan EVO Freedom robot, and L. major promastigotes were added to each well and allowed to invade the RAW macrophages. Promastigotes were cultured in Schneider's medium (Invitrogen Cat #11720-067) supplemented with 20% heat inactivated FBS. Metacyclic stage promastigotes provide the best invasion for this assay, and cultures should be grown to increase the percentage of metacyclic promastigotes for best results. Promastigotes were harvested from culture, counted, suspended at 2×10^6 promastigotes/mL in DMEM/HIFBS media, and 100,000 promastigotes were dispensed per well in a volume of 50 μL. After overnight incubation, the media was removed from each well using the Tecan Freedom EVO robot, and each well was subsequently washed three times with 40 μF of fresh DMEM/HIFBS medium to remove all extracellular promastigotes. After the third wash, 69.2 μF of DMEM/HIFBS medium was added to each well using the Tecan EVO Freedom robot. Drug plates were prepared with the Tecan EVO Freedom using sterile 96 well plates containing twelve duplicate two-fold serial dilutions of each test compound suspended in DMSO. 7.8 μF of diluted test compound was added to the 69.2 μF of media present in each well providing a 10 fold final dilution of compound. The final concentration range tested was 0.5 to 10,000 ng/ml for all assays. The plates were next incubated at 37° C. and 5% CO2 for 96 hours. After 96 hours of incubation, 7.5 μF of a luciferin solution (Caliper Fife Science) diluted to 150 μg/mF was added to each well, and the plates were incubated for 30 minutes at 37° C., in the dark. […]

[2] = tested on: TdTomato-modified T. cruzi (CL strain) in Vero cells; experiment: In vitro IC50 measurement of T. cruzi amastigote killing using TdTomato-modified T. cruzi (CL strain); details: Trypanosoma cruzi, 72 h, fluorescence, read-out: IC50: I Org. amastigote Growth T. cruzi CL TdTomato, 3 d
Protocol: Example 112. In Vitro IC50 Measurement of T. cruzi Amastigote Killing Using TdTomato-Modified T. cruzi (CL Strain)
The T. cruzi parasites used in this assay were genetically modified to express Td Tomato fluorescent protein. Vero cells (African green monkey kidney epithelial cells) were harvested from continuous cultures using trypsin and added to the inner 60 wells of 96-well Greiner Bio One plates (plate catalog #655090) at 200 ul/well of […]. Cells were allowed to adhere for 1 h before infection with T. cruzi. T. cruzi for infection were harvested from previously-infected Vero cells, washed, pelleted and resuspended at 5×10^6/mL. 50 uL of parasites were added to each well containing Vero cells. Compounds were prepared from 5 mM stock concentrations in DMSO to final concentrations in wells ranging from 5 uM to 5 nM. Wells were provided for negative controls, lacking compounds. Plates were placed into a 37° C. incubator for 20 min, then a “Day 0” reading was taken on a Synergy H4 plate reader to record initial fluorescence levels, at 544 (excitation) and 612 nm (emission). 96-well plates were placed in Tupperware containers with wet paper towels and incubated at 37° C. incubator for 72 h. After 72 h plates were reread (Day 3 reading) and data analyzed using Excel and/or Graphpad software. Day 0 fluorescence was subtracted from Day 3 to remove input parasite fluorescence. Growth curves are generated and 50% and 90% inhibitory concentrations are determined by nonlinear regression analysis.

[3] = tested on: bloodstream forms of T. b. rhodesiense STIB 900; experiment: T. brucei rhodesiense STIB 900 growth inhibition assay; details: Trypanosoma brucei, 72 h
Text: Example 110. T. brucei rhodesiense STIB 900 Growth Inhibition Assay
The parasite strain used in this assay was isolated in 1982 from a human patient in Tanzania and after several mouse passages cloned and adapted to axenic culture conditions, ((a) Baltz, T., D. Baltz, C. Giroud, and J. Crockett. EMBO Journal, 1985, 4:1273-1277. (b) Thuita, J. K., S. M. Karanja, T. Wenzler, R. E. Mdachi, J. M. Ngotho, J. M. Kagira, R. Tidwell, and R. Brun. Acta Tropica 2008, 108:6-10.) Minimum Essential Medium (50 μl) supplemented with 25 mM HEPES, 1 g/l additional glucose, 1% MEM non-essential amino acids (100×), 0.2 mM 2-mercaptoethanol, 1 mM Na-pyruvate and 15% heat inactivated horse serum was added to each well of a 96-well microtiter plate. Serial drug dilutions of seven 3-fold dilution steps covering a range from 90 to 0.123 μg/ml were prepared. Then 10^4 bloodstream forms of T. b. rhodesiense STIB 900 in 50 μl was added to each well and the plate incubated at 37° C. under a 5% CO2 atmosphere for 72 h. 10 μl Alamar Blue (resazurin, 12.5 mg in 100 ml double-distilled water) was then added to each well and incubation continued for a further 2-4 h, (Raz, B., M. Iten, Y. Grether-Buhler, R. Kaminsky, and R. Brun. Acta Trap 1997, 68:139-47.) Then the plates were read with a Spectramax Gemini XS microplate fluorometer (Molecular Devices Cooperation, Sunnyvale, Calif., USA) using an excitation wave length of 536 nm and an emission wave length of 588 nm. Data were analyzed using the microplate reader software Softmax Pro (Molecular Devices Cooperation, Sunnyvale, Calif., USA).

[4] = tested on: L. infantum MHOM/MA(BE)/67 amastigotes in primary peritoneal mouse macrophages; experiment: Leishmania infantum intracellular amastigote assay in mouse macrophages; details: Macrophage, 120 h
Protocol: Example 111. Leishmania infantum Intracellular Amastigote Assay in Mouse Macrophages
L. infantum MHOM/MA(BE)/67 amastigotes were collected from the spleen of an infected donor hamster and used to infect primary peritoneal mouse macrophages. (Kaiser, M., Maes, L., Tadoori, L. P., Spangenberg, T., Ioset, J.-R. J. Biomol. Screen. 2015 20(5), 634-35.) To determine in vitro antileishmanial activity, 3×10^4 macrophages were seeded in each well of a 96-well plate. Culture medium was RPMI-1640 supplemented with L-glutamine (20 mM), 16.5 mM sodium hydrogen carbonate, and 10% fetal calf serum (FCS). After 2 d of outgrowth, 5×10^5 amastigotes/well were added and incubated for 2 h at 37° C. Prediluted samples to be tested were subsequently added, and the plates were further incubated for 5 d at 37° C. and 5% CO2. Total parasite burdens in the well were microscopically assessed after Giemsa staining and expressed as a percentage of the total burden in the blank controls without compound. In treated wells with high amastigote burdens, an overall estimate of the total burden per well was made without discrimination between the number of infected macrophages and the number of amastigotes per infected cell. In treated wells with low burdens, exact counting was performed. The 50% inhibitory concentrations (IC50s) were then generated for each dose response test using GraphPad Prism (GraphPad Software Inc., San Diego, Calif.) using the nonlinear regression (sigmoidal dose-response/variable slope) equation.

[5] = tested on: IL3000 T. congolense (drug sensitive) strain; experiment: In vitro Alamar Blue 72 h drug sensitivity assay for T. congolense; details: Trypanosoma congolense; for IC50: bloodstream form, 69 h + 3 h resazurin, 34° C., classes A-C, read-out: IC50: I Org. Growth T. congolense IL-3000, 3 d
Protocol: Example 106. In Vitro Alamar Blue 72 h Drug Sensitivity Assay for T. congolense
Compounds were tested in vitro for chemotherapeutic potency against the IL3000 T. congolense (drug sensitive) strain, using the Alamar Blue assay with several modifications. Test compounds were prepared as 10 mg/mL DMSO stocks for each assay run. Compounds were assayed in at least three separate, independent test runs and an 11-point dilution curve was used to determine the IC50 values. Bloodstream form trypanosomes were supported in HMI media containing 20% bovine serum and were incubated with test compounds for 69 h at 34° C. in a humidified atmosphere containing 5% CO2. Thereafter, 10 μL of Resazurin dye (12.5 mg in 100 mL of phosphate buffered saline, Sigma-Aldrich, Buchs, Switzerland) were added for an additional 3 h. Plates were then read using a fluorescent plate reader (Spectramax, Gemini XS, Bucher Biotec, Basel, Switzerland) using an excitation wavelength of 536 nm and an emission wavelength of 588 nm. Data points were averaged to generate sigmoidal dose-response curves and IC50 values were determined using Softmax Pro 5.2 software.

[6] = bloodstream forms, Alamar Blue, protocol of Example 110, read-out: IC50: I Org. Growth T. brucei rhodesiense STIB 900, 3 d
[7] = amastigotes in primary peritoneal mouse macrophages, 5 d, Giemsa staining, read-out: Inhibition of Organism Growth in Leishmania infantum MHOM/MA/BE/67, 5 d
[8] = read-out: IC50: I Org. Growth T. brucei rhodesiense STIB 900, 3 d [uM]
[9] = read-out: Inhibition of Organism Growth in Leishmania infantum MHOM/MA/BE/67, 5 d [uM]

Compound: Cc1c(C(=O)Nc2ccc3c(c2)B(O)OC3C)nnn1-c1ccccc1 (centres unmarked) [Example 1, N-(1-hydroxy-1,3-dihydrobenzo[c][1,2]oxaborol-6-yl)-5-methyl-1-phenyl-1H-Example 11,2,3-triazole-4-carboxamide]
IC50 [1]: ≤ 1000 nM
IC50 [2]: < 600 nM

IC50 [4, 7]: < 3 µM
Compound: Cc1cccc(-c2nc(C(=O)Nc3ccc4c(c3)B(O)OC4)nn2C)n1 [Example 74, N-(1-hydroxy-1,3-dihydrobenzo[c][1,2]oxaborol-6-yl)-1-methyl-5-(6-methylpyridin-2-yl)-1H-1,2,4-triazole-3-carboxamide]
IC50 [3, 6]: 0.1 to 0.3 µM

Compound: Cn1nc(-c2cccnc2)nc1C(=O)Nc1ccc2c(c1)B(O)OC2 [Example 78b, N-(1-hydroxy-1,3-dihydrobenzo[c][1,2]oxaborol-6-yl)-1-methyl-3-(pyridin-3-yl)-1H-1,2,4-triazole-5-carboxamide]
inhibition at 1 µM ([5]; read-out: inhibition of T. congolense IL-3000 growth at a concentration of 1.0 μM (classes D, E)): > 75%
IC50 [3, 8]: 0.31 to 10 µM
IC50 [4, 9]: 20 to 100 µM

Compound: Cc1c(C(=O)Nc2ccc3c(c2)B(O)OC3)nnn1C1CCC1 [Example 42, 1-cyclobutyl-N-(1-hydroxy-1,3-dihydrobenzo[c][1,2]oxaborol-6-yl)-5-methyl-1H-1,2,3-triazole-4-carboxamide]
IC50 [1]: 1100 to 9900 nM
IC50 [2]: 600 to 1000 nM

Compound: CCCc1c(C(=O)Nc2ccc3c(c2)B(O)OC3)nnn1-c1ccccn1 [Example 50, N-(1-hydroxy-1,3-dihydrobenzo[c][1,2]oxaborol-6-yl)-5-propyl-1-(pyridin-2-yl)-1H-1,2,3-triazole-4-carboxamide]
IC50 [5]: 100 to 300 nM
IC50 [2]: < 600 nM

Compound: CCc1c(C(=O)Nc2ccc3c(c2)B(O)OC3)nnn1-c1ccccn1 [Example 49, 5-ethyl-N-(1-hydroxy-1,3-dihydrobenzo[c][1,2]oxaborol-6-yl)-1-(pyridin-2-yl)-1H-1,2,3-triazole-4-carboxamide]
IC50 [5]: < 100 nM
IC50 [2]: < 600 nM

IC50 [4, 7]: 3 to 19.9 µM
Compound: Cn1c(C(=O)Nc2ccc3c(c2)B(O)OC3)nnc1-c1ccccn1 [Example 73, N-(1-hydroxy-1,3-dihydrobenzo[c][1,2]oxaborol-6-yl)-4-methyl-5-(pyridine-2-yl)-4H-1,2,4-triazole-3-carboxamide]
IC50 [3, 6]: 0.1 to 0.3 µM

Compound: Cn1nc(C(=O)Nc2ccc3c(c2)B(O)OC3)nc1-c1cccnc1 [Example 78a, N-(1-hydroxy-1,3-dihydrobenzo[c][1,2]oxaborol-6-yl)-1-methyl-5-(pyridin-3-yl)-1H-1,2,4-triazole-3-carboxamide]
IC50 [3, 8]: 0.31 to 10 µM
IC50 [4, 9]: 3 to 19.9 µM
